Data taken from patent US6649763B1, “Optically active quinoline carboxylic acid derivatives with 7-pyrrolidine substituents causing optical activity and a process for the preparation thereof” (Dong Wha Pharm. Ind. Co., Ltd., priority 1999, dated 2003).

Tests used:
[1] = tested on: Staphylococcus epidermidis 329; assay: Antibacterial activity in vitro (MIC, agar dilution); assay type: cell-based; conditions: resistant strain Staphylococcus epidermidis 329
Procedure: (§1) The optically active quinoline carboxylic acid derivatives of the present invention were tested as to whether they could be useful as antibacterial compounds. In this regard, the compounds were measured for minimum inhibitory concentration (MIC: unit μg/ml) according to an agar dilution process (Hoechst 345) in which Muller-Hinton agars were diluted two fold. For comparison, ciprofloxacin and sparfloxacin were used as controls. Corresponding enantiomers and racemates of the compounds of interest were also used as comparative ones. Bacteria were inoculated at an amount of about 10^7 cfu/ml onto each agar. 18 hours after the inoculation at 37° C., the growth of the bacteria was observed. As to methicillin-resistant strains, their growth was observed 48 hours after the inoculation at […]. Hoechst standard strains were used as the test bacteria.

[2] = tested on: Staphylococcus aureus 88E; assay: as above; assay type: cell-based; conditions: resistant strain Staphylococcus aureus 88E
Procedure: as §1

[3] = tested on: Staphylococcus aureus 690E; assay: as above; assay type: cell-based; conditions: resistant strain Staphylococcus aureus 690E
Procedure: as §1

[4] = tested on: Staphylococcus aureus 208E; assay: as above; assay type: cell-based; conditions: resistant strain Staphylococcus aureus 208E
Procedure: as §1

[5] = tested on: Staphylococcus aureus 693E; assay: as above; assay type: cell-based; conditions: resistant strain Staphylococcus aureus 693E
Procedure: as §1

[6] = tested on: Staphylococcus aureus 303; assay: as above; assay type: cell-based; conditions: resistant strain Staphylococcus aureus 303
Procedure: as §1

[7] = tested on: Staphylococcus aureus 692E; assay: as above; assay type: cell-based; conditions: resistant strain Staphylococcus aureus 692E
Procedure: as §1

[8] = tested on: Staphylococcus aureus 256E; assay: as above; assay type: cell-based; conditions: resistant strain Staphylococcus aureus 256E
Procedure: as §1

[9] = tested on: Staphylococcus aureus 293; assay: as above; assay type: cell-based; conditions: resistant strain Staphylococcus aureus 293
Procedure: as §1

[10] = tested on: Staphylococcus epidermidis 319; assay: as above; assay type: cell-based; conditions: resistant strain Staphylococcus epidermidis 319
Procedure: as §1

[11] = tested on: Staphylococcus aureus 121E; assay: as above; assay type: cell-based; conditions: resistant strain Staphylococcus aureus 121E
Procedure: as §1

[12] = tested on: Staphylococcus aureus 241; assay: as above; assay type: cell-based; conditions: resistant strain Staphylococcus aureus 241
Procedure: as §1

[13] = tested on: Staphylococcus aureus 179; assay: as above; assay type: cell-based; conditions: resistant strain Staphylococcus aureus 179
Procedure: as §1

Phototoxicity test = assay type: in vivo; conditions: CD-1 female mice, oral 50 mg/kg; for Thickness of mice's ears after UV exposure, After 24 hr / Thickness of mice's ears after UV exposure, After 48 hr: UVA light source; for Thickness of mice's ears after UV exposure, After 24 hr / Thickness of mice's ears after UV exposure, After 48 hr / Thickness of mice's ears, Before UV exposure: 50 mg/kg; for edema and erythema observed after UV exposure / increase in ear thickness compared with before the UV exposure: after 48 hours of the UV exposure; for Thickness of mice's ears, Before UV exposure: baseline before UVA
Procedure: It is known that the presence of a halogen atom at the 8-position of the quinolone nuclei causes phototoxicity.
After 16 hours of starvation, CD-1 female mice were orally administered with a dose of 50 mg/kg of the compounds and allowed to be exposed for 4.5 hours to a UVA light source. The mice were located 15 cm away from the light source. Whether the mice were damaged in their ears was adopted as a main factor for the phototoxicity and determined after 24 hour and 48 hour UV exposure. The edema which the mice suffered were examined by measuring the thickness changes of their ears with the aid of electronic calipers and calculating average values. Also, an observation was made as to whether the mice suffered from erythema.

[14] = listed as enantiomer of the compound of Example 14, 50 mg/kg
[15] = listed as Racemic mixture of Example 14 compound
[16] = listed as racemate of the compound of Example 14, 50 mg/kg

Structure (SMILES)	minimum inhibitory concentration (MIC) [1]	minimum inhibitory concentration (MIC) [2]	minimum inhibitory concentration (MIC) [3]	minimum inhibitory concentration (MIC) [4]	minimum inhibitory concentration (MIC) [5]	minimum inhibitory concentration (MIC) [6]	minimum inhibitory concentration (MIC) [7]	minimum inhibitory concentration (MIC) [8]	minimum inhibitory concentration (MIC) [9]	minimum inhibitory concentration (MIC) [10]	minimum inhibitory concentration (MIC) [11]	minimum inhibitory concentration (MIC) [12]	minimum inhibitory concentration (MIC) [13]	further results
CO/N=C1\CN(c2cc3c(cc2F)c(=O)c(C(=O)O)cn3C2CC2)CC1(C)CN.Cl (single isomer, unassigned) [Enantiomer of Example 19 Compound]	12.500 µg/mL	0.098 µg/mL	0.049 µg/mL	0.098 µg/mL	0.098 µg/mL	3.125 µg/mL	0.049 µg/mL	0.098 µg/mL	3.125 µg/mL	12.500 µg/mL	0.098 µg/mL	3.125 µg/mL	3.125 µg/mL	
CO/N=C1\CN(c2c(F)c(N)c3c(=O)c(C(=O)O)cn(C4CC4)c3c2F)CC1(C)CN.Cl (single isomer, unassigned) [Enantiomer of Example 14 Compound]	1.563 µg/mL	0.007 µg/mL	0.004 µg/mL	0.013 µg/mL	0.004 µg/mL	0.195 µg/mL	0.004 µg/mL	0.013 µg/mL	0.195 µg/mL	0.781 µg/mL	0.013 µg/mL	0.195 µg/mL	0.195 µg/mL	Thickness of mice's ears after UV exposure, After 24 hr (Phototoxicity test): 36.3 ± 3.01; Thickness of mice's ears after UV exposure, After 48 hr (Phototoxicity test): 44.5 ± 4.0; edema and erythema observed after UV exposure (Phototoxicity test; [14]): serious edema and erythema; increase in ear thickness compared with before the UV exposure (Phototoxicity test; [14]): 150%; Thickness of mice's ears, Before UV exposure (Phototoxicity test): 17.8 ± 0.89
CO/N=C1\CN(c2nc3c(cc2F)c(=O)c(C(=O)O)cn3C2CC2)CC1(C)CN.Cl (single isomer, unassigned) [Enantiomer of Example 9 Compound]	12.500 µg/mL	0.025 µg/mL	0.025 µg/mL	0.049 µg/mL	0.025 µg/mL	0.781 µg/mL	0.025 µg/mL	0.025 µg/mL	1.563 µg/mL	6.250 µg/mL	0.049 µg/mL	1.563 µg/mL	1.563 µg/mL	
CO/N=C1\CN(c2nc3c(cc2F)c(=O)c(C(=O)O)cn3C2CC2)CC1(C)CN.Cl (racemic) [Racemate of Example 9 Compound]	0.781 µg/mL	0.007 µg/mL	0.004 µg/mL	0.007 µg/mL	0.007 µg/mL	0.195 µg/mL	<0.002 µg/mL	0.007 µg/mL	0.195 µg/mL	0.391 µg/mL	0.007 µg/mL	0.195 µg/mL	0.195 µg/mL	
CO/N=C1\CN(c2c(F)c(N)c3c(=O)c(C(=O)O)cn(C4CC4)c3c2F)CC1(C)CN.Cl (racemic) [Racemate of Example 14 Compound]	0.098 µg/mL	<0.002 µg/mL	<0.002 µg/mL	<0.002 µg/mL	<0.002 µg/mL	0.025 µg/mL	<0.002 µg/mL	<0.002 µg/mL	0.025 µg/mL	0.049 µg/mL	<0.002 µg/mL	0.025 µg/mL	0.025 µg/mL	Thickness of mice's ears after UV exposure, After 24 hr (Phototoxicity test; [15]): 23.5 ± 1.31; Thickness of mice's ears after UV exposure, After 48 hr (Phototoxicity test; [15]): 24.4 ± 2.33; edema and erythema observed after UV exposure (Phototoxicity test; [16]): moderate edema and erythema; increase in ear thickness compared with before the UV exposure (Phototoxicity test; [16]): 39%; Thickness of mice's ears, Before UV exposure (Phototoxicity test; [15]): 17.6 ± 0.52
CO/N=C1\CN(c2cc3c(cc2F)c(=O)c(C(=O)O)cn3C2CC2)CC1(C)CN.Cl (racemic) [Racemate of Example 19 Compound]	0.781 µg/mL	0.013 µg/mL	0.007 µg/mL	0.013 µg/mL	0.013 µg/mL	0.391 µg/mL	0.013 µg/mL	0.013 µg/mL	0.391 µg/mL	0.781 µg/mL	0.013 µg/mL	0.391 µg/mL	0.391 µg/mL	
